PMC9368227, “Investigation of Radiotracer Metabolic Stability In Vitro with CYP-Overexpressing Hepatoma Cell Lines” (Cells, 2022)

Experiments:
[1] = test system: HepG2 CYP2C19; test: Competitive coincubation of [18F]1 with competitors, HepG2 CYP2C19; settings: 1 h; without additional substances; 120–125 nM [18F]1
Description: Radio thin-layer chromatography (radio-TLC) was carried out on reversed-phase TLC plates (ALUGRAM RP-18W/UV254 from Macherey-Nagel, Düren, Germany) with a mobile phase of 45% ACN in water containing 0.1% trifluoroacetic acid. The samples (2 µL) were spotted onto the TLC plate. The line of origin and the front line were labeled with 1/5 of the sample activity concentration. To track the Rf value of the intact radiotracer, each TLC was spotted with the intact tracer as reference in the middle. Detection of the activity signals was achieved after 10–30 min development on radioluminographic imaging plates (FUJIFILM, Tokyo, Japan) and subsequent readout with Fuji BAS 5000® or Amersham™ Typhoon™ from GE Healthcare (Uppsala, Sweden). The resulting chromatographic profile was analyzed and integrated with the help of AIDA Image Analysis Software (version 5.1). For data depiction, the fraction of each species (intact radiotracer, metabolite, [^18F]fluoride) was plotted.
Incubations were conducted for up to 2 h in a 96-well plate in KHB with a total incubation volume of 50 µL and an ethanol concentration of 0.4%. For the incubation with radiotracers, an activity of 100–200 kBq/well at the start of the experiment was used.
Our last interest within this study was to test if the tracer itself could function as an indicator for the conversion of other substrates acting via inhibition of or competition with the CYP enzymes. In this regard, alternative substrates were added to the incubation mixtures with [^18F]1. The investigated substrates covered testosterone, caffeine, progesterone, compound 3, tebufelone, and RWJ63556 [44] (10 µM for all substances). Furthermore, the influence of testosterone on the metabolic turnover of [^18F]1 was investigated over a concentration range of 1–50 µM.
Figure 7 Coincubation of [^18F]1 and different competitors with (A) HepG2 CYP1A2 and (B) HepG2 CYP2C19. […] Each competitor/inhibitor was incubated with [^18F]1 for 1 h followed by radio-TLC analysis. […]

[2] = test system: human liver microsomes (HLMs); test: Microsome assay, human liver microsomes; type: in vitro ADME; settings: for Amount of intact tracer: radio-TLC
Description: (§1) The stability of [^18F]1 toward liver microsomes was analyzed under oxidative conditions with MLMs (MSMCP, Lot: MS046-C) and HLMs (HMMCPL; Lot: PL050E-B) according to a previously described procedure. In brief, 12.5 µL of the respective microsomes (final 1 mg/mL) were mixed with 110.4 µL of PBS, followed by the addition of 100 µL of [^18F]1 (with 5 MBq and 1% ethanol; final 0.4% ethanol) and 2.1 µL of reference compound (final concentration 50 µM 1), or an equivalent of DMSO. The resulting mixture was mixed at 37 °C for 5 min, and the reaction was then initiated by the addition of 25 µL of NADPH (final 2 mM). After 1 h incubation, the resulting samples were mixed with ice-cold ACN (1/4, v/v) and vortexed for 30 s, placed on ice for 4 min, and finally centrifuged at 13,200 rpm for 5 min at 4 °C. The supernatant was separated and used for further analysis by radio-HPLC (6–10 µL injection volume; System 1b with 25–75% gradient elution) and radio-TLC analysis (2 µL applied on TLC, analysis as described above).

[3] = test system: murine liver microsomes (MLMs); test: Microsome assay, murine liver microsomes; type: in vitro ADME; settings: 1 h incubation
Description: as §1

[4] = Radiotracer incubation in buffer only (control, without any cell line), radio-TLC; type: in vitro ADME
Description: HepG2 cells were cultured in DMEM GlutaMax (Gibco, Paisley, UK) with 10% fetal calf serum (FCS) and with selective antibiotics (penicillin/streptomycin for wildtype, Zeocin (InvivoGen, San Diego, CA, USA) for CYP1A2, and Blasticidin (Gibco, Carlsbad, CA, USA) for CYP2C19 and CYP3A4 cultures). As a negative control, cultures of CHO cultivated in Ham’s F-12 medium (Gibco) with 10% FCS and 2 mM glutamine were added for the radiotracer experiments. Cells were handled under a laminar flow hood (Thermo Scientific^TM Safe 2020, Langenselbold, Germany) and were split once or twice a week by trypsinization. Cell cultures were stored horizontally in a humidified incubator (Heracell240i) at 37 °C and 5% CO2. During the time of experimental work, the utilized cell lines were regularly checked for mycoplasma. Cells were seeded in duplicates into a 96-well plate (CellStar®) with a density of 3 × 10^5 cells/well and cultured until the next day at 37 °C and 5% CO2. Cell density was determined with a cell counter (CASY® Model TT from Schärfe System, Reutlingen, Germany). Before the addition of substrates, cells were washed twice with Krebs–Henseleit buffer (KHB). The HEPES-supplemented Krebs–Henseleit buffer (pH 7.4, KHB) was freshly prepared using HEPES (5.95 g/L), D-glucose (2.0 g/L), magnesium sulfate (0.141 g/L), potassium dihydrogenphosphate (0.16 g/L), potassium chloride (0.35 g/L), sodium chloride (6.9 g/L), calcium chloride dihydrate (0.373 g/L), and sodium bicarbonate (2.1 g/L), followed by adjustment to pH 7.4 with NaOH. […]
Incubations with radiotracer compounds were conducted, on the one hand, with radioactive ^18F-labeled compounds alone (time dependency) and, on the other hand, in the presence of 50 µM nonradioactive reference (carrier addition). For the investigation of a time-dependent metabolite formation, 2 µL aliquots were withdrawn from the supernatant, directly spotted onto the TLC plate, and analyzed as described above. […]

[5] = test system: all utilized cell lines; test: Activity distribution between supernatant, wash and cells, summary over all utilized cell lines; type: in vitro ADME; settings: end of incubation period (2 h); range over cell lines
Description: HepG2 cells were cultured in DMEM GlutaMax (Gibco, Paisley, UK) with 10% fetal calf serum (FCS) and with selective antibiotics (penicillin/streptomycin for wildtype, Zeocin (InvivoGen, San Diego, CA, USA) for CYP1A2, and Blasticidin (Gibco, Carlsbad, CA, USA) for CYP2C19 and CYP3A4 cultures). As a negative control, cultures of CHO cultivated in Ham’s F-12 medium (Gibco) with 10% FCS and 2 mM glutamine were added for the radiotracer experiments. Cells were handled under a laminar flow hood (Thermo Scientific^TM Safe 2020, Langenselbold, Germany) and were split once or twice a week by trypsinization. Cell cultures were stored horizontally in a humidified incubator (Heracell240i) at 37 °C and 5% CO2. […] Cell density was determined with a cell counter (CASY® Model TT from Schärfe System, Reutlingen, Germany). […]
Initially, CYP-overexpressing HepG2 and, as controls, HepG2 wildtype, as well as CHO (Chinese hamster ovary) cells, were incubated as an adhered monolayer in a 96-well plate with a relatively high activity concentration of [^18F]1 (25 MBq/mL; workflow according to Figure 1A, upper panel), and the supernatant and cell lysates were investigated by radio-TLC. […] As a result (Table 1), the main fraction of activity was found in the supernatant (64–91%), while only a negligible to low amount of activity was measured in cell lysates (1–16%). […]

- Intact tracer [18F]1 remaining [1]: 11%
- Increase of intact tracer amount with carrier addition ([2]; 1 h, CA versus without carrier addition): sevenfold
- Amount of intact tracer ([2]; 1 h, carrier-added (CA), 50 µM 1): 30.3%
- Amount of intact tracer ([2]; 1 h, without carrier addition, 38 MBq/mL (931 nM), 1 mg/mL microsomes, NADPH): 4.2%
- Formation of second metabolite (M2) ([2]; 1 h incubation): observed
- Formation of second metabolite (M2) [3]: did not lead to the second metabolite
- Metabolic turnover / stability of radiotracer (in words) ([4]; buffer only, up to 2 h, radio-TLC): no metabolic turnover
- Defluorination without additional enzymes in the incubation buffer (KHB) ([4]; reference incubation without any cell lines): to a minor extent
- Fraction of activity in cell lysates [5]: 1–16%
- Fraction of activity in supernatant [5]: 64–91%
Structure (SMILES): Cc1ccc(-c2cc(C[18F])nn2-c2ccc(S(C)(=O)=O)cc2)cc1 [[^18F]1, 3-([^18F]fluoromethyl)-1-[4-(methylsulfonyl)phenyl]-5-(p-tolyl)-1H-pyrazole]
